13 compounds from patent publication US11708352B2, “Anti-cancer compounds” (THE REGENTS OF THE UNIVERSITY OF CALIFORNIA, priority 2015, dated 2023) can be followed below.

One test deals with OVCAR8. Kind of test: Cell viability assay in solid tumor cell lines (Cell-Titer Glo), OVCAR8. The test is classed as cell-based. Conditions: Homo sapiens, OVCAR-8, 72 hours. How it is done: (§1) Cell Viability Assay in Solid Tumors Cell Lines (Data in FIG. 2)
(§2) Human cancer cell lines (lung, ovarian, breast pancreatic and mesothelioma) were purchased from the ATCC. The cell lines were cultured in RPMI 1640 (Life Technologies, Carlsbad, Calif.) supplemented with 10% fetal bovine serum (FBS) and antibiotics. […] At the end of treatment, cell proliferation was determined by an intracellular adenosine triphosphate monitoring system (Cell-Titer Glo-Promega).
(§3) Inhibitory activity was evaluated comparing treated versus control data using the GraphPad Prism 6.0 software.

The test system of another test is A549. Kind of test: Cell viability assay in solid tumor cell lines (Cell-Titer Glo), A549. Conditions: Homo sapiens, 72 hours. The test is classed as cell-based. How it is done: as §1, §2, §3
The target of a further test is T1, PARP1 (Homo sapiens, UniProt P09874).
T1 construct: purchased Trevigen 4677-096-K
T1 sequence (P09874 whole entry): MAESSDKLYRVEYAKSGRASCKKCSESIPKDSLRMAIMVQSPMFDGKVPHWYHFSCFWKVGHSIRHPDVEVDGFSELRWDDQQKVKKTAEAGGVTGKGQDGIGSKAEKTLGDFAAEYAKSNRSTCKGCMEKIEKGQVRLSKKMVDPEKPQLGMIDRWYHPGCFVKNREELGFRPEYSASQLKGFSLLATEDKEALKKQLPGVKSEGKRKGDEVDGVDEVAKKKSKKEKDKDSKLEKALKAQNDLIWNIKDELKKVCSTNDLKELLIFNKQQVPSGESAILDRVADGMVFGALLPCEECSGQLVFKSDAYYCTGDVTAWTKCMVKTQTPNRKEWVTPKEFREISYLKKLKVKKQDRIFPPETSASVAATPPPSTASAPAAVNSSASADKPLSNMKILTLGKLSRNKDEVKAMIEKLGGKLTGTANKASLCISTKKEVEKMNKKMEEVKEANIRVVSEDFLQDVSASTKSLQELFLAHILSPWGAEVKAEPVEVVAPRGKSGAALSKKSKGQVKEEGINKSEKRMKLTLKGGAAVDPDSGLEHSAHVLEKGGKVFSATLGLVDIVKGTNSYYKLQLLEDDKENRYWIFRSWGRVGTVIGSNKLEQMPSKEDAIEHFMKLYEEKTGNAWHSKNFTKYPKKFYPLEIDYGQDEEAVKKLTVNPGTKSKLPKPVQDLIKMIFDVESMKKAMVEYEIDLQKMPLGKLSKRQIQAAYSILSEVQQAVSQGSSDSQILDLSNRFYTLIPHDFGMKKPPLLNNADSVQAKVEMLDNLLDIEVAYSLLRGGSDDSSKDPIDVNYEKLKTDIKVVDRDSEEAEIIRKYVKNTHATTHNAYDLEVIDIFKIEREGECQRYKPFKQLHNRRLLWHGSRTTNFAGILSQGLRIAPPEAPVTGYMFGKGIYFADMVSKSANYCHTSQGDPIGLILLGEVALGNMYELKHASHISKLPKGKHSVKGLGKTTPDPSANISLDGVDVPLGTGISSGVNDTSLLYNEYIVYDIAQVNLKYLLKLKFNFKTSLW
Kind of test: PARP enzymatic activity inhibition (Trevigen HT Universal PARP Assay Kit). The test is classed as biochemical. How it is done: PARP Enzymatic Activity Inhibition: Determination of IC50 Values for Selected Compounds (Data in FIG. 1)
The half maximal inhibitory concentration (IC50) with respect to PARP inhibition was determined for each test compound by using Trevigen's HT Universal PARP Assay Kit, according to the manufacturer's protocol (Cat #4677-096-K, Gaithersburg, Md.). This assay measures the incorporation of biotinylated poly(ADP-ribose) onto histone proteins in a 96-well strip well format. This assay is ideal for the determination of IC50 values of known or suspected PARP inhibitors. Briefly, stock solutions of each test compound were prepared in DMSO. Histone strip wells were incubated for 30 minutes at room temperature with 50 μl/well of 1×PARP Buffer to rehydrate the histones. Serial dilutions of either test compound were added to appropriate wells. Diluted PARP enzyme (0.5 Unit/well) was then added to the wells containing compounds, and incubated for 10 minutes at room temperature. Subsequently, 25 μl of 1×PARP Cocktail, containing activated DNA, was distributed into each well. Three types of control wells were also analyzed; i. A negative control without PARP was prepared to determine background absorbance. ii. An activity control for PARP Inhibitor Study: 0.5 Unit/well PARP-HSA without inhibitors. These wells provided the 100% activity reference point. iii. And a PARP Standard Curve: Serial dilution of the PARP-HAS standard were prepared in cold microtubes with 1×PARP Buffer such that the total activity is 1 Unit/25 μl, 0.5 Units/25 μl, 0.25 Units/25 μl, 0.1 Units/25 μl, 0.05 Units/25 μl, 0.025 Units/25 and 0.01 Units/25 μl. 25 μl of each standard was added to triplicate wells. Following a 60 minutes incubation at room temperature, the strip wells were washed twice with 1×PBS+0.1% Triton X-100, and twice with 1×PBS. For activity detection, 50 μl per well of diluted Strep-HRP was added, and then incubated at room temperature for 60 minutes. Subsequently, 50 μl per well of pre-warmed TACS-Sapphire™ colorimetric substrate was added followed by a 15 minutes incubation, in the dark, at room temperature. The reactions were then stopped by adding 50 μl per well of 0.2M HCl or 5% Phosphoric Acid and read the absorbance at 450 nm.
The IC50 values were determined by performing non-linear regression analysis fitting velocities and the logarithm of inhibitor concentrations to a sigmoidal dose response with a variable slope model using the GraphPad Prism 6.0 software.

The next test addresses ABL1 (Homo sapiens, UniProt P00519). Kind of test: ABL kinase assay (Z'-LYTE biochemical kinase profiling). Conditions: ATP 10 μM final. How it is done: ABL Kinase Assays (Data in FIG. 1)
The direct inhibitory effect of the test compounds on the ABL kinases activity was assessed using the Z′-LYTE biochemical kinase profiling assays (SelectScreen Kinase Profiling assays, Life Technologies). The Z′-LYTE biochemical assay employs a fluorescence-based, coupled-enzyme format and is based on the differential sensitivity of phosphorylated and non-phosphorylated peptides to proteolytic cleavage. The peptide substrate is labeled with two fluorophores (one at each end) that make up a FRET pair. In the primary reaction, the kinase transfers the gamma-phosphate of ATP to a single tyrosine, serine or threonine residue in a synthetic FRET-peptide. In the secondary reaction, a site-specific protease recognizes and cleaves non-phosphorylated FRET-peptides. Phosphorylation of FRET-peptides suppresses cleavage by the Development Reagent. Cleavage disrupts FRET between the donor and acceptor fluorophores on the FRET-peptide, whereas uncleaved, phosphorylated FRET-peptides maintain FRET. The extent of phosphorylation of the FRET-peptide can be calculated from the Emission Ratio between cleaved and uncleaved FRET-peptides. The Emission Ratio will remain low if the FRET-peptide is phosphorylated (i.e., no kinase inhibition) and will be high if the FRET-peptide is non-phosphorylated (i.e., kinase inhibition).
Using the above described assay, The Test Compounds were screened in 1% DMSO (final) in the well. 10 point titrations, 3-fold serial dilutions were conducted. Briefly, in a black 384-well plate serial dilutions of test compound or 100 nL 100× were mixed with kinase buffer peptide/Kinase Mixture and ATP Solution (10 μM final). After one hour Kinase Reaction incubation at room temperature, the development Reagent Solution was added. Subsequently, the fluorescence signals were measured using a fluorescence plate reader. Data were analyzed and the IC50 were calculated with XLfit graphing software using the sigmoidal dose-response model.

A further test deals with bovine brain tubulin. Kind of test: Tubulin polymerization assay (Cytoskeleton kit BK011P). The test is classed as biochemical. Particulars: % Inhibition versus control; compound concentration of 4 μM. An excerpt: Tubulin Polymerization Assay (Data in FIG. 1)
The high-throughput screening-tubulin polymerization assay kit (Cytoskeleton, Cat. #BK011P) is an economical one step procedure for determining the effects of drugs or proteins on tubulin polymerization. Polymerization is followed by fluorescence enhancement due to the incorporation of a fluorescent reporter into microtubules as polymerization occurs. The standard assay tubulin generates a polymerization curve representing the three phases of microtubule formation, namely nucleation, growth, and steady state equilibrium. Compounds that interact with tubulin will often alter one or more of the characteristic phases of polymerization. For example, the anti-mitotic drug paclitaxel eliminates the nucleation phase and enhances the Vmax of the growth phase. Similarly, the microtubule destabilizing drug, vinblastine (also antimitotic) causes a decrease in Vmax and a reduction in final polymer mass. Thus, one application of this assay is the identification of novel anti-mitotics.
The direct effects of the test compounds on tubulin polymerization were investigated using the abovementioned Tubulin polymerization assay kit (Cytoskeleton, Cat. #BK011P), as indicated by the manufacturer protocol. Briefly, bovine brain tubulin (400 μg/sample) in the presence of either 0.5% DMSO treated (control), 4 μM test compounds, 3 μM paclitaxel (Cytoskeleton), or 3 μM vinblastine (Cytoskeleton) was incubated in PEM buffer [80 mm PIPES, 1 mm EGTA, 1 mm MgCl2 (pH 6.8)] containing 1.0 mm GTP (G-PEM) and 15% glycerol, at 37 C. All samples (wells) contained 15% glycerol. The degree of polymerization over time was measured in a spectrophotometer (Biotek synergy HT plate reader) at 350 nm. All time points were plotted and analyzed using GraphPad Prism 6.0 software.
DMSO control was set as 0% inhibition. Positive values depict the percentage of decrease in Vmax and final polymer mass, as compared to control. Negative values are inversely correlated to degree of nucleation phase elimination and the percentage of increase of the Vmax, as compared to control.

ABL1, sequence (P00519 whole entry): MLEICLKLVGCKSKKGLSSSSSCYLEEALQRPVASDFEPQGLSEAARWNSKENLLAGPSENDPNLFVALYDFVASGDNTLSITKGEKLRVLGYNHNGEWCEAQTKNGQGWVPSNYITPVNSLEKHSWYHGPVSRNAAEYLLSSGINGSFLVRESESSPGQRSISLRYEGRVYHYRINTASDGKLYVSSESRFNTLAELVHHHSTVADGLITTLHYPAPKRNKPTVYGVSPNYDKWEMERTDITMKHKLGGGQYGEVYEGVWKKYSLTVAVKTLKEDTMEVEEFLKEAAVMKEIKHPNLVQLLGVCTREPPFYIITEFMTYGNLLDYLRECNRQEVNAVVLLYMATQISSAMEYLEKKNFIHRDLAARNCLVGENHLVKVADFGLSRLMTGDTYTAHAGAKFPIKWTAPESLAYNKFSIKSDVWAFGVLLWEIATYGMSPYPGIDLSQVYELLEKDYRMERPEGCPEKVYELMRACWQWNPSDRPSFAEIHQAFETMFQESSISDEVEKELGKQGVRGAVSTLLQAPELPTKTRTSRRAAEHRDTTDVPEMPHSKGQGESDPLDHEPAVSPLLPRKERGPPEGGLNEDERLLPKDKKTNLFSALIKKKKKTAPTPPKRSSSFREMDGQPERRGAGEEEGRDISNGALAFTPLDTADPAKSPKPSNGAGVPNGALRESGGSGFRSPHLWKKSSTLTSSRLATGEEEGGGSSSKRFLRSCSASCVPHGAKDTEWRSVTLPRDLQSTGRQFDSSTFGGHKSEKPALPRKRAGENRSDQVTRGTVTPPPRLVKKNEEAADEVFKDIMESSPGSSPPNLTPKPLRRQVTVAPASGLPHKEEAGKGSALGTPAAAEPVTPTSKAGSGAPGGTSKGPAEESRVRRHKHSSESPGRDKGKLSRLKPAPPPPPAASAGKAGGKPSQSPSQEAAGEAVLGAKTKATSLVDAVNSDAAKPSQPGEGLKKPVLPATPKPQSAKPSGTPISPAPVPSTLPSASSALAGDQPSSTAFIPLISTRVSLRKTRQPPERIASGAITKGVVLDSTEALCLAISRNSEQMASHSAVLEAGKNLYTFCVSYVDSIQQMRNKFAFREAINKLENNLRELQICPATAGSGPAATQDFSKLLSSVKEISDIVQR

As usually defined, the IC50 is the midpoint of a concentration-inhibition curve. On to `CCCC(=O)Nc1nc2cc(-c3n[nH]c(=O)c4ccccc34)ccc2[nH]1` [Compound No. 86, N-(5-(4-oxo-3,4-dihydrophthalazin-1-yl)-1H-benzimidazol-2-yl)butyramide], for which the IC50 in the test on OVCAR8 is less than 500 nM; with A549 it was less than 500 nM; against PARP1, 5000 to 10000 nM; at ABL1 it was less than 500 nM.

In the case of `CCOC(=O)Nc1nc2cc(-c3n[nH]c(=O)c4ccccc34)cc(C)c2[nH]1` [Compound No. 145, Ethyl (7-methyl-5-(4-oxo-3,4-dihydrophthalazin-1-yl)-1H-benzimidazol-2-yl)carbamate], the IC50 in the test with OVCAR8 is less than 500 nM; in the test with A549, less than 500 nM; on PARP1 it was greater than 10000 nM; against ABL1, 5000 to 10000 nM.

Consider `CCOC(=O)Nc1nc2cc(-c3n[nH]c(=O)c4ccccc34)cc(Cl)c2[nH]1` [Compound No. 135, Ethyl (7-chloro-5-(4-oxo-3,4-dihydrophthalazin-1-yl)-1H-benzimidazol-2-yl)carbamate], for which the IC50 with OVCAR8 was less than 500 nM; in the test with A549 it was less than 500 nM; against PARP1 it was 1000 to 5000 nM; on ABL1, less than 500 nM.

As to `CCNC(=O)Nc1nc2cc(-c3n[nH]c(=O)c4ccccc34)ccc2[nH]1` [Compound No. 80, 1-Ethyl-3-(5-(4-oxo-3,4-dihydrophthalazin-1-yl)-1H-benzimidazol-2-yl)urea], the IC50 in the test with OVCAR8 is 1000 to 5000 nM; in the test on A549, 1000 to 5000 nM; against PARP1, greater than 10000 nM; at ABL1, less than 500 nM.

For the compound `COCCOC(=O)Nc1nc2cc(-c3n[nH]c(=O)c4ccccc34)ccc2[nH]1` [Compound No. 3, 2-Methoxyethyl (5-(4-oxo-3,4-dihydrophthalazin-1-yl)-1H-benzimidazol-2-yl)carbamate], the IC50 in the test on OVCAR8 was in the range of 1000 to 5000 nM; with A549, 1000 to 5000 nM; at PARP1, 5000 to 10000 nM; against ABL1, 500 to 1000 nM. Moreover, in the test with bovine brain tubulin, the “Tubulin Polymerization Inhibition” value is given as “Y (Y = (% Inhibition versus control) ≤20%. Results with a compound concentration of 4 μM)”.

Take `CCOC(=O)Nc1nc2cc(-c3n[nH]c(=O)c4cc(Cl)c(Cl)cc34)ccc2[nH]1` [Compound No. 23, Ethyl (5-(6,7-dichloro-4-oxo-3,4-dihydrophthalazin-1-yl)-1H-benzimidazol-2-yl)carbamate]: the IC50 in the test with OVCAR8 is less than 500 nM; in the test on A549, 500 to 1000 nM; at PARP1, 1000 to 5000 nM; against ABL1, less than 500 nM.

As for `CCOC(=O)Nc1nc2cc(-c3n[nH]c(=O)c4ccc(Cl)cc34)ccc2[nH]1` [Compound No. 21, Ethyl (5-(7-chloro-4-oxo-3,4-dihydrophthalazin-1-yl)-1H-benzimidazol-2-yl)carbamate], the IC50 in the test with OVCAR8 is 500 to 1000 nM; with A549, 500 to 1000 nM; on PARP1 it was greater than 10000 nM; against ABL1, less than 500 nM.

As to `CCOC(=O)Nc1nc2cc(-c3n[nH]c(=O)c4cccc(Cl)c34)ccc2[nH]1` [Compound No. 20, Ethyl (5-(8-chloro-4-oxo-3,4-dihydrophthalazin-1-yl)-1H-benzimidazol-2-yl)carbamate], the IC50 in the test with OVCAR8 is 500 to 1000 nM; in the test with A549, 1000 to 5000 nM; against PARP1 it was greater than 10000 nM; against ABL1, 500 to 1000 nM.

`CCCC(=O)Nc1nc2cc(-c3n[nH]c(=O)c4ccccc34)cc(Cl)c2[nH]1` [Compound No. 139, N-(7-chloro-5-(4-oxo-3,4-dihydrophthalazin-1-yl)-1H-benzimidazol-2-yl)butyramide]: the IC50 in the test with OVCAR8, in the test with A549 and on ABL1 was less than 500 nM each time.

With `COC(=O)Nc1nc2cc(-c3n[nH]c(=O)c4ccccc34)ccc2[nH]1` [Compound No. 2, Methyl (5-(4-oxo-3,4-dihydrophthalazin-1-yl)-1H-benzimidazol-2-yl)carbamate], the IC50 is 1000 to 5000 nM in the test on OVCAR8, 1000 to 5000 nM in the test with A549, greater than 10000 nM against PARP1 and 500 to 1000 nM on ABL1. Moreover, the “Tubulin Polymerization Inhibition” value with bovine brain tubulin is “X (X = (% Inhibition versus control) <20%. Results with a compound concentration of 4 μM)”.

As to `CCOC(=O)Nc1nc2cc(-c3n[nH]c(=O)c4cc(F)c(F)cc34)ccc2[nH]1` [Compound No. 11, Ethyl (5-(6,7-difluoro-4-oxo-3,4-dihydrophthalazin-1-yl)-1H-benzimidazol-2-yl)carbamate], the IC50 in the test with OVCAR8 is less than 500 nM; in the test on A549 it was less than 500 nM; on PARP1, greater than 10000 nM; against ABL1, less than 500 nM.

With `CCOC(=O)Nc1nc2cc(-c3n[nH]c(=O)c4ccc(F)cc34)ccc2[nH]1` [Compound No. 9, Ethyl (5-(7-fluoro-4-oxo-3,4-dihydrophthalazin-1-yl)-1H-benzimidazol-2-yl)carbamate], the IC50 in the test on OVCAR8 was less than 500 nM; in the test on A549, less than 500 nM; on PARP1, greater than 10000 nM; at ABL1, less than 500 nM.

Consider `CCOC(=O)Nc1nc2cc(-c3n[nH]c(=O)c4ccccc34)cc(Br)c2[nH]1` [Compound No. 140, Ethyl (7-bromo-5-(4-oxo-3,4-dihydrophthalazin-1-yl)-1H-benzimidazol-2-yl)carbamate], for which the IC50 with OVCAR8 is less than 500 nM; in the test on A549, less than 500 nM; on PARP1, 5000 to 10000 nM; at ABL1, less than 500 nM.
